Data reported in US10407445B2, “Hepatitis C virus inhibitors” (ENANTA PHARMACEUTICALS, INC., priority 2013, dated 2019).
Where two headings read alike, the source gives them in different places.

Tests used:
Type in all cases: cell-based
HCV GT 1b replicon = assay: HCV replicon assay, stable GT 1b replicon (Renilla luciferase); settings: Hepatitis C virus, GT1B, 72 h
Experimental: (§1) The activity of compounds was determined against HCV replicons representing genotypes (GT) 1a, 1b, 2a, and 3a. To generate stable Huh-7.5-based cell lines, HCV replicons were engineered to express the Renilla luciferase reporter (hRluc) fused to the neomycin phosphotransferase (Neo) gene. GT2a and GT3a HCV replicons were based on the JFH-1 subgenomic replicon (Kato et al. 2003 Gastroenterology, 125:1808-1817), in which the NS5A gene was replaced with that of strains J6 and S52 (GT2a and G3a, respectively). The activity of compounds against GT1a replicons encoding NS5A mutations (M28T, Q30R, L31M, Y93C, and Y93H) was also determined in a transient replication assay. The parental GT1a and GT2a replicons (pH/SG-Neo(L+I) and pSG-Neo-JFH1, respectively) were licensed from Apath LLC (Saint Louis, Mo.). The parental GT 1b replicon (pFKi389lucubineo_3_3′_ET) was licensed from ReBLikon GmbH (Germany). HCV replicons were constructed by standard molecular biology techniques described below. All replicon constructs were verified by restriction enzyme digestion and DNA sequencing.
The hRluc-Neo cassette was PCR amplified from pF9 cytomegalovirus (CMV) hRluc-Neo Flexi(R) (Promega) using Accuprime Super Mix II (Invitrogen) and the following primers, which introduce restriction sites: […]
The amplification product was subcloned into pCR2.1-TOPO (Invitrogen). The resulting plasmid was digested with AscI and NotI, and the excised hRluc-Neo fragment was ligated using the Roche Quick Ligation Kit (Roche) into pFKi389lucubineo_3_3′_ET digested with the same enzymes.
Stable HCV replicon cell lines were grown in complete media (Dulbecco's modified Eagle medium [DMEM], 2 mM L-glutamine, 0.1 mM essential amino acids, 1 mM sodium pyruvate, 10% heat inactivated fetal bovine serum) with the addition 500 μg/ml […] (G418). Huh7-lunet cells were maintained in the same medium without the addition of G418. Cells were routinely passaged at a dilution of 1:4 two times a week. The assay medium for both luciferase reporter HCV replicon and cytotoxicity assays used phenol red-free DMEM and lacked G418. For each stable replicon assay, a sixteen point half-log dilution series of compound was stamped (0.5 ul compound per well) into three replica 384-well plates, to which cells were added directly (4000 cells/well). For the transient replication assay, Huh7-lunet cells in ice-cold phosphate buffered saline (PBS) were electroporated (BioRad electroporator; 950 uF, 270V) with 10 ug purified in vitro transcribed HCV replicon RNA, followed by resuspension in complete media and plating (8000 cells/well) into compound stamped 384-well plates. Luciferase activity of compound-treated cells was measured relative to DMSO-treated cells after 72 h incubation using RENILLA-GLO™ Luciferase Assay (Promega). Cytotoxicity (CC50) in the GT1b replicon cell line was analyzed using CELL TITER-GLO™ (Promega).
The compounds of the present invention can be effective against the HCV 1b genotype. It should also be understood that the compounds of the present invention can inhibit multiple genotypes of HCV. In one embodiment compound of the present invention are active against the 1a, 1b, 2a, 2b, 3a, 4a, and 5a genotypes. In another embodiment compound of the present invention are active against the HCV resistant mutants. […] EC50s are in pM against HCV GT 1a and GT 1b; and nM against GT 2a-J6, GT 3a and GT1a resistant variants (M28T, Q30R, L31V, Y93C and Y93H).

HCV GT 2a-J6 replicon = assay: HCV replicon assay, GT2a chimeric replicon expressing NS5A from GT2a strain J6; settings: Hepatitis C virus
Experimental: as §1
(§2) The plasmid pSG-hRlucNeo-JFH1 was generated from pSG-Neo-JFH1 (Kato et al. 2003, Gastroentrology 125:1808-1817). A fragment containing the JFH-1 5′ NTR—hRluc-Neo gene and two unique restriction sites (AgeI and PmeI) was synthesized (Integrated DNA Technologies, Coralville, Iowa). The resulting synthetic plasmid was digested with AgeI and PmeI and the excised fragment (5′NTR-hRluc-Neo) was ligated into pSG-Neo-JFH1 digested with the same enzymes to generate pSG-hRlucNeo-JFH1. To allow expression of heterologous NS5A sequences, an NS5A shuttle vector was generated from pSG-Neo-JFH1, in which the entire coding sequence of NS5A plus the first eight codons of NS5B were replaced with an AfeI restriction site. This was done by Infusion cloning (Clontech, Mountain View, Calif.) from two PCR products that were generated using pSG-Neo-JFH1 as a template and the following primer pairs:
(§3) Underlined sequences denote regions of overlap necessary for Infusion cloning. Purified PCR products were cloned directly into an NsiI/SnaBI digested pSG-Neo-JFH1 following the manufacturer's instructions to generate pSG-Neo-JFH1-5Ashuttle. The 2023 base pair AgeI/PmeI fragment from pSG-hRlucNeo-JFH1 was then ligated into pSG-Neo-JFH1-5Ashuttle to generate pSG-hRlucNeo-JFH1-5Ashuttle. To generate the 2a-2a-(J6) and 2a-3a-(S52) NS5A chimeric replicons, the full length NS5A sequences from GT2a strain J6 (accession AF177036) and GT3a strain S52 (accession GU814263), with the addition of the first eight codons of JFH-1 NS5B (5′-TCCATGTCATACTCCTGGACCGGG-3′), were synthesized by GeneArt (Life Technologies, Carlsbad Calif.). J6 and S52 NS5A sequences were then PCR amplified from the synthetic clones using the appropriate forward primer:
(§4) Underlined sequences denote regions of overlap with pSG-hRlucNeo-JFH1-5Ashuttle necessary for Infusion cloning. Purified PCR products were directly cloned into AfeI-digested shuttle vector by Infusion cloning following the manufacturer's instructions.
(§5) Stable HCV replicon cell lines were grown in complete media (Dulbecco's modified Eagle medium [DMEM], 2 mM L-glutamine, 0.1 mM essential amino acids, 1 mM sodium pyruvate, 10% heat inactivated fetal bovine serum) with the addition 500 μg/ml […] (G418). Huh7-lunet cells were maintained in the same medium without the addition of G418. Cells were routinely passaged at a dilution of 1:4 two times a week. The assay medium for both luciferase reporter HCV replicon and cytotoxicity assays used phenol red-free DMEM and lacked G418. For each stable replicon assay, a sixteen point half-log dilution series of compound was stamped (0.5 ul compound per well) into three replica 384-well plates, to which cells were added directly (4000 cells/well). […]

HCV GT 3a replicon = assay: HCV replicon assay, GT2a chimeric replicon expressing NS5A from GT3a strain S52; settings: Hepatitis C virus
Experimental: as §1, §2, §3, §4, §5

[1] = test system: GT1a replicon encoding NS5A mutation M28T; assay: Transient replication assay, GT1a replicon with NS5A mutation M28T; settings: Hepatitis C virus
[2] = test system: GT1a replicon encoding NS5A mutation Y93C; assay: Transient replication assay, GT1a replicon with NS5A mutation Y93C; settings: Hepatitis C virus

SMILES | EC50 (HCV GT 1b replicon) [nM] | EC50 (HCV GT 2a-J6 replicon; 72 h, read-out: EC50 2a J6) [nM] | EC50 (HCV GT 3a replicon; 72 h, read-out: EC50 3a) [nM] | EC50 ([1]; read-out: EC50 1a M28T) [nM] | EC50 ([2]; read-out: EC50 1a Y93C) [nM] | EC50 (HCV GT 2a-J6 replicon; read-out: EC50 (nM) 2a-J6) [nM] | EC50 (HCV GT 3a replicon; read-out: EC50 (nM) 3a) [nM] | EC50 ([1]; read-out: EC50 (nM) 1a M28T) [nM] | EC50 ([2]; read-out: EC50 (nM) 1a Y93C) [nM]
COC(=O)N[C@H](C(=O)N1CCC[C@H]1c1nc2ccc3cc(-c4ccc5c(ccc6nc([C@@H]7C[C@@]8(CCCOC8)CN7C(=O)[C@@H](NC(=O)OC)C(C)C)[nH]c65)c4)ccc3c2[nH]1)C(C)C [Compound 48] | 0.009 | 0.03 | 0.07 | 0.05 | 0.02 | – | – | – | –
COC(=O)N[C@H](C(=O)N1C[C@]2(CCCOC2)C[C@H]1c1nc2ccc3cc(-c4ccc5c(ccc6nc([C@@H]7C[C@@H]8CCCC[C@@H]8N7C(=O)[C@@H](NC(=O)OC)C(C)C)[nH]c65)c4)ccc3c2[nH]1)C(C)C [Compound 23] | 0.007 | 0.05 | 0.06 | 0.02 | 0.02 | – | – | – | –
COC(=O)N[C@H](C(=O)N1C[C@]2(CCCOC2)C[C@H]1c1ncc(-c2ccc(-c3ccc(-c4cnc([C@@H]5C[C@@H]6CCCC[C@@H]6N5C(=O)[C@@H](NC(=O)OC)C(C)C)[nH]4)cc3)cc2)[nH]1)C(C)C [Compound 32] | 0.006 | 2 | 2 | 0.05 | 0.5 | – | – | – | –
COC(=O)N[C@H](C(=O)N1C[C@]2(CCCOC2)C[C@H]1c1ncc(-c2ccc(-c3ccc4c(ccc5nc([C@@H]6CCCN6C(=O)[C@@H](NC(=O)OC)C(C)C)[nH]c54)c3)cc2)[nH]1)C(C)C [drawing 233] | – | – | – | – | – | 0.6 | 0.08 | 0.2 | 0.3
COC(=O)N[C@H](C(=O)N1[C@H](c2nc3ccc4cc(-c5ccc(-c6cnc([C@@H]7C[C@@]8(CCCOC8)CN7C(=O)[C@H](NC(=O)OC)C7C[C@@H](C)O[C@H](C)C7)[nH]6)cc5)ccc4c3[nH]2)C[C@@H]2CCCC[C@@H]21)C(C)C (stereo in doubt) [Compound 39] | 0.029 | 41 | 48 | 0.4 | 4 | – | – | – | –
COC(=O)N[C@H](C(=O)N1C[C@]2(CCCOC2)C[C@H]1c1nc2ccc3cc(-c4ccc5c(ccc6nc([C@@H]7C[C@@H]8C[C@@H]8N7C(=O)[C@@H](NC(=O)OC)C(C)C)[nH]c65)c4)ccc3c2[nH]1)C(C)C [Compound 21] | 0.03 | 2 | 0.09 | 0.2 | 0.09 | – | – | – | –
COC(=O)N[C@H](C(=O)N1C[C@]2(CCCOC2)C[C@H]1c1nc2ccc3cc(-c4ccc5c(ccc6nc([C@@H]7C[C@H]8C[C@H]8N7C(=O)[C@@H](NC(=O)OC)C(C)C)[nH]c65)c4)ccc3c2[nH]1)C(C)C [Compound 6] | 0.012 | 0.07 | 0.08 | 0.06 | 0.02 | – | – | – | –
COC(=O)N[C@H](C(=O)N1C[C@]2(CCOC2)C[C@H]1c1ncc(-c2ccc(-c3ccc4c(ccc5nc([C@@H]6CCCN6C(=O)[C@@H](NC(=O)OC)C(C)C)[nH]c54)c3)cc2)[nH]1)C(C)C [Compound 26] | 0.022 | 22 | 2 | 3 | 0.8 | – | – | – | –
COC(=O)N[C@H](C(=O)N1CCC[C@H]1c1nc2ccc(C#Cc3ccc4c(ccc5nc([C@@H]6CCCN6C(=O)[C@@H](NC(=O)OC)C(C)C)[nH]c54)c3)cc2[nH]1)C(C)C [Example 103] | 0.004 | 16 | 0.3 | 6 | 2 | – | – | – | –
COC(=O)N[C@H](C(=O)N1C[C@]2(CCCOC2)C[C@H]1c1ncc(-c2ccc(-c3ccc4c(ccc5nc([C@@H]6CC7(CC7)CN6C(=O)[C@@H](NC(=O)OC)C(C)C)[nH]c54)c3)cc2)[nH]1)C(C)C [Compound 28] | 0.011 | 13 | 0.5 | 0.09 | 0.1 | – | – | – | –
COC(=O)N[C@H](C(=O)N1C[C@]2(CCCOC2)C[C@H]1c1ncc(-c2ccc3c(ccc4cc(-c5cnc([C@@H]6C[C@@H]7CCCC[C@@H]7N6C(=O)[C@@H](NC(=O)OC)C(C)C)[nH]5)ccc43)c2)[nH]1)C(C)C [Compound 17] | 0.013 | 22 | 6 | 0.008 | 0.3 | – | – | – | –
COC(=O)N[C@H](C(=O)N1C[C@]2(CCCOC2)C[C@H]1c1nc2ccc3cc(-c4ccc(-c5cnc([C@@H]6C[C@@H]7CCC[C@@H]7N6C(=O)[C@@H](NC(=O)OC)C(C)C)[nH]5)cc4)ccc3c2[nH]1)C(C)C [Compound 10] | 0.005 | 0.2 | 0.2 | 0.04 | 0.2 | – | – | – | –
COC(=O)N[C@H](C(=O)N1C[C@]2(CCCOC2)C[C@H]1c1ncc(-c2ccc(-c3ccc4c(ccc5nc([C@@H]6C[C@@H]7COC[C@@H]7N6C(=O)[C@@H](NC(=O)OC)C(C)C)[nH]c54)c3)cc2)[nH]1)C(C)C [Compound 35] | 0.049 | 2 | 2 | 0.2 | 0.4 | – | – | – | –
COC(=O)N[C@H](C(=O)N1CC2(CC2)C[C@H]1c1ncc(-c2ccc(-c3ccc4c(ccc5nc([C@@H]6C[C@@]7(CCCOC7)CN6C(=O)[C@@H](NC(=O)OC)C(C)C)[nH]c54)c3)cc2)[nH]1)C(C)C [Compound 8] | 0.01 | 8 | 0.9 | 0.06 | 0.1 | – | – | – | –
COC(=O)N[C@H](C(=O)N1C[C@]2(CCCO2)C[C@H]1c1ncc(-c2ccc(-c3ccc4c(ccc5nc([C@@H]6CCCN6C(=O)[C@@H](NC(=O)OC)C(C)C)[nH]c54)c3)cc2)[nH]1)C(C)C [Example 81] | 0.013 | 45 | 3 | 0.3 | 0.2 | – | – | – | –
